The text below walks through data of ChEMBL document CHEMBL1201862, “PubChem BioAssay data set” (2004).

Some test systems named below: CAKI-1; HOP-92; HCC 2998; NCI-H460; SF-539; HCT-15; OVCAR-5; BT-549; NCI-H23; ACHN; MDA-N; Malme-3M; HL-60; OVCAR-4; M14; SNB-19; U-251; UO-31; KM12.
Experiment in all cases: NCI anticancer screen, dose series, 48 h

Structures are written as SMILES.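 Grown in 96-well plates, cells were treated for 48 hours with each compound at five concentrations. Insufficient inhibition: endpoint recorded as highest concentration tested. Abbreviation: GI50, concentration required for 50% inhibition of growth.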 The source made the active and inactive calls. Rule as the data show it: active = GI50 up to about 1.1 µM and inactive = higher. Some results are limits rather than exact numbers.

As for `O=C(CC(O)(C(F)(F)F)C(F)(F)F)c1cc(CC(=O)C(O)(C(F)(F)F)C(F)(F)F)cc(CC(=O)C(O)(C(F)(F)F)C(F)(F)F)c1`, the GI50 in the assay with CAKI-1 was 1.75 µM (inactive); in the assay on HOP-92 it was 0.984 µM (active); with HCC 2998, 1.54 µM (inactive); in the assay on NCI-H460 it was 0.454 µM (active); with SF-539 it was 2.05 µM (inactive); in the assay with HCT-15, 0.971 µM. Moreover, the GI50 was 3.01 µM (inactive) in the assay on OVCAR-5; 1.71 µM (inactive) in the assay on BT-549; 0.867 µM (active) in the assay with NCI-H23; 0.802 µM (active) in the assay on ACHN; 2.64 µM (inactive) in the assay with MDA-N; 2.01 µM (inactive) in the assay on Malme-3M. In addition, the GI50 was > 10 µM (inactive) with HL-60; 1.77 µM (inactive) in the assay on OVCAR-4; 2.58 µM (inactive) with M14; 2.67 µM (inactive) in the assay with SNB-19; 1.54 µM (inactive) with U-251; 1.25 µM (inactive) in the assay on UO-31. Moreover, the GI50 in the assay on KM12 was 0.512 µM (active).
In the case of `BrCC(Br)(c1ccccc1)c1ccccc1-c1cc(-c2ccccc2)cc(-c2ccccc2)n1` (stereo not given), the GI50 with CAKI-1 was 5.87 µM (inactive); in the assay on HOP-92 it was 2.48 µM (inactive); in the assay with HCC 2998 it was 2.05 µM (inactive); in the assay on NCI-H460, 3.38 µM (inactive); with SF-539, 4.3 µM (inactive); with HCT-15 it was 15.2 µM. Further, the GI50 in the assay on OVCAR-5 is 3.67 µM (inactive); in the assay with BT-549, 2.51 µM (inactive); in the assay on NCI-H23, 3.94 µM (inactive); with ACHN, 7.01 µM (inactive); in the assay with MDA-N, 3.01 µM (inactive); in the assay on Malme-3M, 3.16 µM (inactive). The GI50 in the assay on HL-60 was 1.07 µM (active); with OVCAR-4, 4.05 µM (inactive); with M14 it was 4.38 µM (inactive); in the assay with SNB-19, 4.86 µM (inactive); in the assay with U-251, 1.48 µM (inactive); in the assay on UO-31, 10.7 µM (inactive). Further, in the assay on KM12, the GI50 was 3.13 µM (inactive).
Take `COC1=C(Br)C(O)C2(C=C1Br)CC(C(=O)NCCCCNC(=O)C1=NOC3(C=C(Br)C(OC)=C(Br)C3O)C1)=NO2` (stereo not given): the GI50 with CAKI-1 is 63.4 µM (inactive); in the assay with HOP-92 it was 26.2 µM (inactive); with HCC 2998 it was 52.1 µM (inactive); in the assay on NCI-H460, 26.4 µM (inactive); in the assay with SF-539 it was 19.8 µM (inactive); in the assay on HCT-15, 49 µM. The GI50 in the assay with OVCAR-5 was 50.4 µM (inactive); in the assay with BT-549, 33.6 µM (inactive); with NCI-H23, 40.5 µM (inactive); in the assay with ACHN, 26.3 µM (inactive); in the assay with MDA-N it was 16.7 µM (inactive); in the assay on Malme-3M, 16.4 µM (inactive). The GI50 in the assay on HL-60 was 20.6 µM (inactive); in the assay on OVCAR-4, 54.3 µM (inactive); with M14, 15.5 µM (inactive); in the assay with SNB-19 it was 37.3 µM (inactive); in the assay on U-251 it was 25.8 µM (inactive); with UO-31 it was 43.2 µM (inactive). In the assay with KM12, the GI50 was 12.4 µM (inactive).
Take `O=c1[nH]c2c(Nc3c4ccccc4nc4ccccc34)c([N+](=O)[O-])c(Nc3c4ccccc4nc4ccccc34)c([N+](=O)[O-])c2[nH]1`: the GI50 in the assay on CAKI-1 was 2.15 µM (inactive); in the assay with HOP-92, 1.67 µM (inactive); with HCC 2998, 1.73 µM (inactive); in the assay on NCI-H460, 1.33 µM (inactive); with SF-539, 2.61 µM (inactive); in the assay with HCT-15, 1.82 µM. Further, the GI50 is 1.8 µM (inactive) in the assay on OVCAR-5; 3.51 µM (inactive) in the assay with BT-549; 1.26 µM (inactive) in the assay on NCI-H23; 0.6 µM (active) in the assay on ACHN; 2.36 µM (inactive) in the assay with MDA-N; 1.57 µM (inactive) with Malme-3M. The GI50 in the assay with HL-60 is 2.67 µM (inactive); with OVCAR-4, 2.35 µM (inactive); with M14 it was 1.84 µM (inactive); in the assay on SNB-19, 2.64 µM (inactive); in the assay with U-251, 2.33 µM (inactive); with UO-31, 1.24 µM (inactive). Further, the GI50 with KM12 is 2.14 µM (inactive).
For `COC(=O)c1cc(OC)c(OC)c(OC)c1-c1cc2c(cc1C=O)OCO2`, the GI50 with CAKI-1 was > 10 µM (inactive); in the assay with HOP-92 it was > 10 µM (inactive); in the assay on HCC 2998 it was > 10 µM (inactive); in the assay on NCI-H460, > 10 µM (inactive); with SF-539, > 10 µM (inactive); with HCT-15 it was over 10 µM. Also, the GI50 in the assay on OVCAR-5, in the assay with BT-549, in the assay on NCI-H23, with ACHN, in the assay on MDA-N and in the assay with Malme-3M was > 10 µM (inactive) in each case. Also, the GI50 in the assay on HL-60, with OVCAR-4, in the assay on M14, in the assay on SNB-19, with U-251 and with UO-31 was > 10 µM (inactive) each time. Moreover, the GI50 in the assay on KM12 was > 10 µM (inactive).
On to `CO[C@H]1[C@@H](O)[C@H](O[C@@H]2C[C@H]3CC[C@@H]4[C@H](CC[C@]5(C)[C@@H](C6=CC(=O)OC6)CC[C@]45O)[C@@]3(C)[C@H](OC(C)=O)C2)O[C@@H](C)[C@H]1O`, for which the GI50 in the assay with CAKI-1 was 0.533 µM (active); in the assay with HOP-92 it was 2.54 µM (inactive); in the assay with HCC 2998 it was 7.18 µM (inactive); in the assay on NCI-H460, 0.465 µM (active); with SF-539, 0.573 µM (active); with HCT-15 it was 1.92 µM. Moreover, the GI50 is 2.18 µM (inactive) with OVCAR-5; 0.637 µM (active) with BT-549; 0.662 µM (active) with NCI-H23; 0.393 µM (active) with ACHN; 1.64 µM (inactive) in the assay on MDA-N; 1.18 µM (inactive) in the assay with Malme-3M. In addition, the GI50 is 0.402 µM (active) with HL-60; 1.39 µM (inactive) in the assay on OVCAR-4; 2.22 µM (inactive) in the assay with M14; 4.28 µM (inactive) with SNB-19; 2.54 µM (inactive) in the assay on U-251; 1.27 µM (inactive) in the assay with UO-31. Moreover, the GI50 with KM12 is 5.83 µM (inactive).
Regarding `C[C@H]1[C@H](C)CC[C@]2(C(=O)OC3OC(CO)C(O)C(O)C3O)CC[C@]3(C)C(=CC[C@@H]4[C@@]5(C)C[C@@H](O)[C@@H]6OC(=O)c7cc(O)c(O)c(O)c7-c7c(cc(O)c(O)c7O)C(=O)OC[C@@]6(CO)[C@@H]5CC[C@]43C)[C@H]12` (stereo not given in full), the GI50 is 47.8 µM (inactive) in the assay on CAKI-1; > 92.5 µM (inactive) in the assay with HOP-92; > 100 µM (inactive) in the assay with HCC 2998; 98.6 µM (inactive) in the assay with NCI-H460; > 100 µM (inactive) in the assay on SF-539; 76.7 µM in the assay on HCT-15. Also, the GI50 is > 75.3 µM (inactive) in the assay on OVCAR-5; > 100 µM (inactive) in the assay on BT-549; > 100 µM (inactive) in the assay on NCI-H23; > 100 µM (inactive) in the assay with ACHN; 21.5 µM (inactive) in the assay on MDA-N; > 95.5 µM (inactive) in the assay with Malme-3M. The GI50 with HL-60 is 39.2 µM (inactive); in the assay with OVCAR-4, 23.9 µM (inactive); in the assay on M14, > 100 µM (inactive); in the assay with SNB-19 it was > 100 µM (inactive); with U-251, 60.4 µM (inactive); in the assay on UO-31, 43.1 µM (inactive). In addition, the GI50 in the assay on KM12 was 58.6 µM (inactive).
Consider `CCOC(=O)c1cccc(NC(=O)CCl)c1`, for which the GI50 was 1.88 µM (inactive) in the assay with CAKI-1; 7.45 µM (inactive) with HOP-92; 2.19 µM (inactive) in the assay on HCC 2998; 1.19 µM (inactive) in the assay on NCI-H460; 2.34 µM (inactive) with SF-539; 2.75 µM in the assay with HCT-15. Besides, the GI50 in the assay with OVCAR-5 is 7 µM (inactive); in the assay with BT-549 it was 4.45 µM (inactive); in the assay on NCI-H23 it was 3.22 µM (inactive); with ACHN it was 3.48 µM (inactive); with MDA-N it was 3.92 µM (inactive); with Malme-3M, 6.22 µM (inactive). Besides, the GI50 in the assay on HL-60 was 3.94 µM (inactive); with OVCAR-4, 2.37 µM (inactive); in the assay with M14 it was 8.61 µM (inactive); with SNB-19, 28.6 µM (inactive); in the assay on U-251, 1.4 µM (inactive); in the assay with UO-31 it was 4.04 µM (inactive). In addition, the GI50 with KM12 is 7.46 µM (inactive).
In the case of `CCOC(=O)C1=C(C)N(C)C23OC4(C(=O)OC)CC2c2ccccc2C1N3C4=O` (stereo not given), the GI50 with CAKI-1 was > 100 µM (inactive); in the assay on HOP-92 it was > 100 µM (inactive); in the assay on HCC 2998, 12.4 µM (inactive); in the assay on NCI-H460, 20 µM (inactive); with SF-539, 22.3 µM (inactive); in the assay on HCT-15 it was 63.7 µM. Moreover, the GI50 with OVCAR-5 is > 100 µM (inactive); in the assay with BT-549, > 100 µM (inactive); in the assay with NCI-H23, > 100 µM (inactive); in the assay on ACHN, > 100 µM (inactive); in the assay with MDA-N it was 14.2 µM (inactive); with Malme-3M, > 100 µM (inactive). Besides, the GI50 with HL-60 is 24.6 µM (inactive); in the assay with OVCAR-4 it was > 100 µM (inactive); with M14, 73.8 µM (inactive); in the assay on SNB-19, > 100 µM (inactive); in the assay on U-251, > 100 µM (inactive); with UO-31 it was 25.1 µM (inactive). The GI50 in the assay on KM12 is 84.5 µM (inactive).
Regarding `COc1ccc2c(c1)-c1nc(=O)n(CCCN(C)C)c3ccc([N+](=O)[O-])c(c13)N2`, the GI50 in the assay with CAKI-1 was 0.434 µM (active); with HOP-92, 1.57 µM (inactive); with HCC 2998, 1.06 µM (active); in the assay with NCI-H460 it was 0.435 µM (active); in the assay with SF-539, 0.421 µM (active); with HCT-15, 0.897 µM. In addition, the GI50 was 1.15 µM (inactive) in the assay with OVCAR-5; 3.85 µM (inactive) with BT-549; 1.1 µM (active) with NCI-H23; 0.485 µM (active) in the assay on ACHN; 3.22 µM (inactive) in the assay on MDA-N; 0.752 µM (active) in the assay with Malme-3M. Further, the GI50 is 1.86 µM (inactive) with HL-60; 1.77 µM (inactive) in the assay on OVCAR-4; 1.08 µM (active) in the assay with M14; 2.5 µM (inactive) in the assay with SNB-19; 1.43 µM (inactive) in the assay with U-251; 0.682 µM (active) in the assay with UO-31. In addition, the GI50 with KM12 was 0.873 µM (active).
